# Source: patent publication US10750762B2, “Bio-based N-acetyl-L-methionine and use thereof” (CJ Cheiljedang Corporation, priority 2015, dated 2020)
# Read-outs that look alike come from different tables or passages of the source.
# How the values were obtained:
# extracts of bovine liver = assay: Digestive degradation by extracts of liver; format: in vitro ADME; details: Korean native cattle, 24 h
# Method: The liver of Korean native cattle (record number: KOR005078680400), slaughtered in Bucheon livestock products market of National Agricultural Cooperative Federation, was purchased. After mixing liver tissues (0.125 g) with 20 mM sodium phosphate buffer (pH 7.4, 1 mL), glass beads (Sigma G1145) were filled in about 1/10 of a tube (2 mL). The cell tissues were disrupted using a beadbeater (MP™ FastPrep) for three times with each 20 seconds, and the resultant was centrifuged at 4° C. at 14,000 rpm for 10 minutes to obtain supernatants.
# To confirmed the enzymatic activity of the extracts obtained from small intestine and liver, acylase I (sigma A3010) extracted from pig kidney was used. […]
# (§1) In order to remove protein in the sample which the reaction was over, perchloric acid (0.5%) was added therein and diluted 10-fold. Thereafter, the N-acetyl-L-methionine and L-methionine existing in the supernatant, which is separated by centrifugation at 14,000 for 10 minutes, were quantitatively analyzed (HPLC). Conversion rate (%) was calculated by comparing the molar concentrations (mM) between the N-acetyl-L-methionine prior to the reaction and the L-methionine after the reaction, in terms of the percentage (%) (the molecular weight of the N-acetyl-L-methionine: […]; and the molecular weight of the L-methionine: […]). […]
# [1] = tested on: extracts of bovine small intestine; format: in vitro ADME; details: Korean native cattle, 24 h
# Method: The small intestine (40 m) of Korean native cattle (record number: KOR005078680400), slaughtered in Bucheon livestock products market of National Agricultural Cooperative Federation, was purchased. After slicing the small intestine to around 1 m, 20 mM sodium phosphate buffer (pH 7.4, 5 mL) was added in the sliced small intestine. Thereafter, while holding each ends of the small intestine, the small intestine was repeatedly waggled to help most of enzymes in the small intestine to be dissolved by the sodium phosphate buffer. […]
# as §1
# ruminal microflora = details: male, Holstein, cattle, 2 mg/mL
# Method: One Holstein steer (weighing around 630 kg to 650 kg) equipped with ruminal cannula was provided for an experimental purpose, and the Holstein steer was bred by feeding the commercial feed (Milkgen™, CJ CheilJedang) and rice straws twice a day (7:30 a.m., 3:[…].).
# The collection of ruminal fluid was carried out at 10 a.m. on the experimental day. Contents in the rumen were removed through a cannula, and gastric fluid was extracted with gauze by squeezing the same. Thereafter, the extracted gastric fluid was placed in a vacuum flask, and bubbled with CO2. The vacuum flak containing the gastric fluid was then carried to a laboratory while blocking a penetration of oxygen. It took less than an hour to carry the ruminal fluid to the laboratory.
# The ruminal fluid carried to the laboratory was filtered with two layers of gauze, and then it was used as anaerobic culture medium by mixing the same with a biomimetic solution of McDougall's buffer (Troelsen and Donna, 1966), which is commonly used in the in vitro rumen bypass test, in a ratio of 1:3.
# A feed used in the experiment was the commercial feed (Milkgen™), a feed substantially used for cattle breeding, and the feed was also used as a basal diet. Further, the experimental samples were prepared by mixing the basal diet with a test material. The test material used in this experiment was N-acetyl-L-methionine, and this was used as an experimental group 1. The experimental group 1 was compared with the control group 1 composed of only the basal diet without the test material, and also compared with the control group 2 composed of the test material, L-methionine. The culture was carried out with three replications for each experimental group.
# The basal diet and test material were mixed in a ratio of 4:1 (basic diet (0.4 g), test material (0.1 g); but only 0.5 g of basic diet in control group 1). The culture initiated when the mixed test material (0.5 g) was added in a culture bottle (125 mL), and then mixed it with the prepared anaerobic culture medium (50 mL), and placed in 40° C. incubator upon sealing of the same.
# O2 free CO2 was sprayed during the entire process including dilution of the ruminal fluid until the initiation of the culture, so that the ruminal fluid was not exposed to oxygen. Therefore, the anaerobic condition was maintained.
# The culture was finally carried out for 48 hours, and sampling of the culture medium was carried out a total of four times (0 h, 24 h, 36 h, 48 h) upon the initiation of the culture. At each sampling, the sample placed in the 40° C. incubator was moved from the incubator and opened its lid. Thereafter, a supernatant was obtained by centrifuging the culture medium at 4000 rpm for 10 minutes, and then the amount of the test material present in the supernatant was measured.
# The bypass rate (%) is represented as a residual amount (%) at time-points of 24 hours, 36 hours, and 48 hours, based on the amount of a test material at the time-point of 0 hour (100%).
# [2] = Milk production and composition on feeding N-acetyl-L-methionine; format: in vivo, dairy cows
# Method: Based on the in vitro evaluation, the N-acetyl-L-methionine, for which high digestive degradation rate in the small intestine and bypass rate in the rumen had been observed, was subjected to verify its efficiency through a substantial evaluation with dairy cows. In order for this, the cows were divided into two separated groups, and the change in milk composition depending on presence or absence of the N-acetyl-L-methionine was analyzed during the evaluation. For this, eight dairy cows were divided into two groups so that each group consists of four cows, respectively. Additionally, the N-acetyl-L-methionine was added to the feed composition (Table 12) which are fed by the four cows in one group (30 g of N-acetyl-L-methionine by each cow per a day), and it was carried out for 84 days. • Group 1: Non-addition of N-acetyl-L-methionine • Group 2: Addition of N-acetyl-L-methionine
# [3] = Weight gain effect on feeding N-acetyl-L-methionine; format: in vivo, beef steers
# Source text: The weight gain effect of beef steers was verified through feeding N-acetyl-L-methionine. For the verification, 24 beef steers were divided into two groups so that each group consisted of 12 beef steers. […] In the group with the addition of N-acetyl-L-methionine, each beef steer was fed with the N-acetyl-L-methionine (30 g) per a day.
# [4] = 30 g per cow per day in feed, 84 days
# [5] = 30 g per steer per day, 90 days
smiles,measurement,setting,value
"CSCCC(NC(C)=O)C(=O)O (racemic) [N-acetyl-D,L-methionine, reference compound]",L-methionine (mM) after the reaction,extracts of bovine liver,6.36 mM
same,L-methionine (mM) after the reaction,[1],5.82 mM
CSCC[C@H](N)C(=O)O [L-methionine],"Rate of rumen bypass (%), Average",ruminal microflora; 0 h,100%
same,"Rate of rumen bypass (%), replicate 1",ruminal microflora; 0 h,100%
same,"Rate of rumen bypass (%), replicate 2",ruminal microflora; 0 h,100%
same,"Rate of rumen bypass (%), replicate 3",ruminal microflora; 0 h,100%
same,"Rate of rumen bypass (%), Average",ruminal microflora; 24 h,58.8%
same,"Rate of rumen bypass (%), replicate 1",ruminal microflora; 24 h,51.2%
same,"Rate of rumen bypass (%), replicate 2",ruminal microflora; 24 h,62.6%
same,"Rate of rumen bypass (%), replicate 3",ruminal microflora; 24 h,62.7%
same,"Rate of rumen bypass (%), Average",ruminal microflora; 36 h,36.0%
same,"Rate of rumen bypass (%), replicate 1",ruminal microflora; 36 h,29.4%
same,"Rate of rumen bypass (%), replicate 2",ruminal microflora; 36 h,42.3%
same,"Rate of rumen bypass (%), replicate 3",ruminal microflora; 36 h,36.2%
same,"Rate of rumen bypass (%), Average",ruminal microflora; 48 h,1.5%
same,"Rate of rumen bypass (%), replicate 1",ruminal microflora; 48 h,1.9%
same,"Rate of rumen bypass (%), replicate 2",ruminal microflora; 48 h,1.5%
same,"Rate of rumen bypass (%), replicate 3",ruminal microflora; 48 h,0.9%
CSCC[C@H](NC(C)=O)C(=O)O [N-acetyl-L-methionine],"Rate of rumen bypass (%), Average",ruminal microflora; 0 h,100%
same,"Rate of rumen bypass (%), replicate 1",ruminal microflora; 0 h,100%
same,"Rate of rumen bypass (%), replicate 2",ruminal microflora; 0 h,100%
same,"Rate of rumen bypass (%), replicate 3",ruminal microflora; 0 h,100%
same,"Rate of rumen bypass (%), Average",ruminal microflora; 24 h,89.1%
same,"Rate of rumen bypass (%), replicate 1",ruminal microflora; 24 h,87.5%
same,"Rate of rumen bypass (%), replicate 2",ruminal microflora; 24 h,90.5%
same,"Rate of rumen bypass (%), replicate 3",ruminal microflora; 24 h,89.4%
same,"Rate of rumen bypass (%), Average",ruminal microflora; 36 h,76.2%
same,"Rate of rumen bypass (%), replicate 1",ruminal microflora; 36 h,72.5%
same,"Rate of rumen bypass (%), replicate 2",ruminal microflora; 36 h,80.1%
same,"Rate of rumen bypass (%), replicate 3",ruminal microflora; 36 h,76.0%
same,"Rate of rumen bypass (%), Average",ruminal microflora; 48 h,55.4%
same,"Rate of rumen bypass (%), replicate 1",ruminal microflora; 48 h,52.6%
same,"Rate of rumen bypass (%), replicate 2",ruminal microflora; 48 h,57.2%
same,"Rate of rumen bypass (%), replicate 3",ruminal microflora; 48 h,56.5%
same,"Amount of production, 3.5% FCM (Fat-corrected milk)",[2]; [4],43.4 kg/day
same,"Amount of production, ECM (Energy-corrected milk)",[2]; [4],42.9 kg/day
same,"Feed efficiency, 3.5% FCM yield/DMI",[2]; [4],1.72
same,"Feed efficiency, ECM yield/DMI",[2]; [4],1.70
same,"Feed efficiency, Milk production/Feed intake (Milk yield/DMI)",[2]; [4],1.66
same,"Production of milk ingredients, Milk fat",[2]; [4],1.56 kg/day
same,"Production of milk ingredients, Milk protein",[2]; [4],1.18 kg/day
same,"Rate of milk ingredients, Milk fat",[2]; [4],3.70%
same,"Rate of milk ingredients, Milk protein",[2]; [4],2.83%
same,"3.5% FCM production, rate of increase (%)",[2]; vs non-addition group,7.4%
same,"ECM production, rate of increase (%)",[2]; vs non-addition group,6.7%
same,"Feed efficiency 3.5% FCM yield/DMI, rate of increase (%)",[2]; vs non-addition group,9.6%
same,"Feed efficiency ECM yield/DMI, rate of increase (%)",[2]; vs non-addition group,8.3%
same,"Feed efficiency Milk yield/DMI, rate of increase (%)",[2]; vs non-addition group,3.1%
same,"Production of milk ingredients, Milk fat, rate of increase (%)",[2]; vs non-addition group,12.2%
same,"Production of milk ingredients, Milk protein, rate of increase (%)",[2]; vs non-addition group,3.5%
same,"Rate of milk ingredients, Milk fat, rate of increase (%)",[2]; vs non-addition group,10.8%
same,"Rate of milk ingredients, Milk protein, rate of increase (%)",[2]; vs non-addition group,1.8%
same,Average daily weight gain,[3]; [5],1.48 kg/day
same,"Weight of beef steer, 3 months after feeding",[3]; [5],382.1 kg
same,additional weight gain,"[3]; in comparison with one without the N-acetyl-L-methionine, 90 days",16.5 kg
same,"Weight gain, rate of increase (%)",[3]; vs non-addition group,14.2%
same,L-methionine (mM) after the reaction,[1],10.9 mM
